Data taken from patent US10314806B2 (SICHUAN JIUZHANG BIOLOGICAL SCIENCE AND TECHNOLOGY CO., LTD., priority 2014, dated 2019).

How the values were obtained:
EMT-6 breast cancer = assay: Inhibition of BABLc mice-transplanted tumor of EMT-6 breast cancer; type: in vivo; details: for Inhibitory rate / Tumor weight: 9 days
Protocol: (1) Animal BABLc mice, ♀, body weight 17˜21 g
Cell Lines EMT-6 cell lines were mice breast cancer cells, and grew adhering to the wall in RPMI-1640 complete media containing 10% calf serum, 1 mmol/L glutamine, 100 U·ml^−1 penicillin and 100 μg·ml^−1 streptomycin, and were cultured in an incubator at 37° C. under 5% CO2, followed by changing the medium and subculturing every two or three days.
Viable cells were counted by trypan blue staining. Cell suspension was subcutaneously inoculated at the left forelimb armpit of mice at 0.2 ml/animal (containing about 1×10^7 cells), and after tumor grew to 1 cm×1 cm×1 cm, mice were used in experiment. Mice tumors were aseptically stripped, and washed with Hank's solution thrice, to remove blood, fat and necrotic tissues. Tumors were cut to broken pieces of 1 mm×1 mm×1 mm, and washed with Hank's solution twice, to which physiological saline was added at a ratio of (1 g:3 ml), and then ground in a glass homogenizer and filtered by 80-100 mesh sieve to make a suspension of single cell. Viable cells were counted by trypan blue staining.
On the second day after inoculation, a dosage of 0.2 ml·10 g^−1 was administrated to each group by intraperitoneal injection (ip) for successive 9 days, once a day. When the tumor weight in negative group was more than 1.0 g(tumor volume being about 0.5 cm^3), the experiment was stopped, and mice were sacrificed by cervical vertebrae removal and weighed. Tumors were stripped to calculate inhibitory rate.

[1] = tested on: chemical liver injury (rat alcoholic fatty liver model); assay: Protective effect on chemical liver injury (rat alcoholic fatty liver model); type: in vivo, rats; details: for GSH / SOD / AST / MDA / ALT: 30 days; for GSH / SOD / MDA: liver homogenate; for AST / ALT: serum
Protocol: Experimental grouping and dose design: Female SD rats were randomly divided to groups, 10 rats for each group, […], 70 mg·kg^−1, 85 mg·kg^−1, 100 mg·kg^−1, 120 mg·kg^−1, 140 mg·kg^−1, 160 mg·kg^−1, 180 mg·kg^−1, […], together with a negative control group and 50% ethanol model control group. Liver injury model was induced by ethanol (analytical pure).
Determination of ALT, AST, TG in serum of rats; Determination of SOD, MDA, reduced glutathione (GSH) in liver homogenate.
Statistics of experimental data: Statistical analysis of experimental data was performed using software package of SPSS 19.0 for windows.

O=C(/C=C/c1ccc(O)c(O)c1)O[C@@H]1C[C@](O)(C(=O)O)C[C@@H](O)[C@H]1O [Chlorogenic acid of the present invention]
Inhibitory rate (EMT-6 breast cancer; 1 mg·kg^−1 ip once a day): 26.40%
Tumor weight (EMT-6 breast cancer; 1 mg·kg^−1 ip once a day): 0.987 ± 0.154 g
Inhibitory rate (EMT-6 breast cancer; 5 mg·kg^−1 ip once a day): 41.16%
Tumor weight (EMT-6 breast cancer; 5 mg·kg^−1 ip once a day): 0.789 ± 0.087 g
Inhibitory rate (EMT-6 breast cancer; 10 mg·kg^−1 ip once a day): 48.55%
Tumor weight (EMT-6 breast cancer; 10 mg·kg^−1 ip once a day): 0.690 ± 0.188 g
Inhibitory rate (EMT-6 breast cancer; 20 mg·kg^−1 ip once a day): 69.95%
Inhibitory rate (EMT-6 breast cancer; 30 mg·kg^−1 ip once a day): 68.01%
Inhibitory rate (EMT-6 breast cancer; 40 mg·kg^−1 ip once a day): 66.37%
Tumor weight (EMT-6 breast cancer; 40 mg·kg^−1 ip once a day): 0.451 ± 0.097 g
Inhibitory rate (EMT-6 breast cancer; 50 mg·kg^−1 ip once a day): 60.55%
Tumor weight (EMT-6 breast cancer; 50 mg·kg^−1 ip once a day): 0.529 ± 0.168 g
Inhibitory rate (EMT-6 breast cancer; 60 mg·kg^−1 ip once a day): 49.22%
Tumor weight (EMT-6 breast cancer; 60 mg·kg^−1 ip once a day): 0.681 ± 0.156 g
Inhibitory rate (EMT-6 breast cancer; 70 mg·kg^−1 ip once a day): 47.95%
Tumor weight (EMT-6 breast cancer; 70 mg·kg^−1 ip once a day): 0.698 ± 0.112 g
Inhibitory rate (EMT-6 breast cancer; 80 mg·kg^−1 ip once a day): 41.16%
Tumor weight (EMT-6 breast cancer; 80 mg·kg^−1 ip once a day): 0.789 ± 0.087 g
Inhibitory rate (EMT-6 breast cancer; 90 mg·kg^−1 ip once a day): 35.94%
Tumor weight (EMT-6 breast cancer; 90 mg·kg^−1 ip once a day): 0.859 ± 0.0754 g
Inhibitory rate (EMT-6 breast cancer; 100 mg·kg^−1 ip once a day): 25.80%
Tumor weight (EMT-6 breast cancer; 100 mg·kg^−1 ip once a day): 0.995 ± 0.0256 g
inhibitory action on BABLc mice-transplanted tumor of EMT-6 (EMT-6 breast cancer; compared with the negative control group, obvious in the dosage groups of 10 mg/kg-60 mg/kg): obviously inhibitory action
GSH ([1]; 10 mg·kg^−1 intragastric): 13.02 ± 1.23 mg/g
SOD ([1]; 10 mg·kg^−1 intragastric): 28.12 ± 3.25 nmol/mg
AST ([1]; 10 mg·kg^−1 intragastric): 189.54 ± 4.87 U/L
GSH ([1]; 20 mg·kg^−1 intragastric): 18.98 ± 2.14 mg/g
MDA ([1]; 20 mg·kg^−1 intragastric): 5.15 ± 0.21 U/mg
SOD ([1]; 20 mg·kg^−1 intragastric): 36.45 ± 2.47 nmol/mg
AST ([1]; 20 mg·kg^−1 intragastric): 178.54 ± 6.15 U/L
GSH ([1]; 35 mg·kg^−1 intragastric): 19.21 ± 1.45 mg/g
MDA ([1]; 35 mg·kg^−1 intragastric): 5.14 ± 0.47 U/mg
SOD ([1]; 35 mg·kg^−1 intragastric): 37.27 ± 3.25 nmol/mg
AST ([1]; 35 mg·kg^−1 intragastric): 168.54 ± 4.31 U/L
GSH ([1]; 50 mg·kg^−1 intragastric): 22.14 ± 2.41 mg/g
MDA ([1]; 50 mg·kg^−1 intragastric): 4.12 ± 0.65 U/mg
SOD ([1]; 50 mg·kg^−1 intragastric): 38.24 ± 2.75 nmol/mg
ALT ([1]; 50 mg·kg^−1 intragastric): 40.12 ± 3.15 U/L
AST ([1]; 50 mg·kg^−1 intragastric): 139.21 ± 5.14 U/L
GSH ([1]; 70 mg·kg^−1 intragastric): 22.87 ± 2.47 mg/g
MDA ([1]; 70 mg·kg^−1 intragastric): 4.56 ± 0.78 U/mg
SOD ([1]; 70 mg·kg^−1 intragastric): 38.75 ± 3.21 nmol/mg
ALT ([1]; 70 mg·kg^−1 intragastric): 38.48 ± 2.47 U/L
AST ([1]; 70 mg·kg^−1 intragastric): 127.54 ± 6.54 U/L
GSH ([1]; 85 mg·kg^−1 intragastric): 23.01 ± 1.58 mg/g
MDA ([1]; 85 mg·kg^−1 intragastric): 4.32 ± 0.46 U/mg
SOD ([1]; 85 mg·kg^−1 intragastric): 40.14 ± 6.12 nmol/mg
ALT ([1]; 85 mg·kg^−1 intragastric): 35.47 ± 2.46 U/L
AST ([1]; 85 mg·kg^−1 intragastric): 119.25 ± 6.89 U/L
GSH ([1]; 100 mg·kg^−1 intragastric): 23.48 ± 1.78 mg/g
MDA ([1]; 100 mg·kg^−1 intragastric): 4.08 ± 0.85 U/mg
SOD ([1]; 100 mg·kg^−1 intragastric): 41.56 ± 4.32 nmol/mg
ALT ([1]; 100 mg·kg^−1 intragastric): 33.14 ± 1.89 U/L
AST ([1]; 100 mg·kg^−1 intragastric): 126.89 ± 4.21 U/L
GSH ([1]; 120 mg·kg^−1 intragastric): 23.98 ± 2.14 mg/g
MDA ([1]; 120 mg·kg^−1 intragastric): 3.89 ± 0.42 U/mg
SOD ([1]; 120 mg·kg^−1 intragastric): 42.87 ± 3.15 nmol/mg
ALT ([1]; 120 mg·kg^−1 intragastric): 39.85 ± 2.41 U/L
AST ([1]; 120 mg·kg^−1 intragastric): 138.84 ± 5.15 U/L
GSH ([1]; 140 mg·kg^−1 intragastric): 24.35 ± 1.58 mg/g
MDA ([1]; 140 mg·kg^−1 intragastric): 3.57 ± 0.64 U/mg
SOD ([1]; 140 mg·kg^−1 intragastric): 44.78 ± 2.31 nmol/mg
ALT ([1]; 140 mg·kg^−1 intragastric): 40.08 ± 2.78 U/L
AST ([1]; 140 mg·kg^−1 intragastric): 140.54 ± 6.12 U/L
GSH ([1]; 160 mg·kg^−1 intragastric): 20.01 ± 1.47 mg/g
MDA ([1]; 160 mg·kg^−1 intragastric): 4.05 ± 0.25 U/mg
SOD ([1]; 160 mg·kg^−1 intragastric): 38.56 ± 2.45 nmol/mg
AST ([1]; 160 mg·kg^−1 intragastric): 157.98 ± 5.27 U/L
GSH ([1]; 180 mg·kg^−1 intragastric): 19.87 ± 2.84 mg/g
MDA ([1]; 180 mg·kg^−1 intragastric): 4.98 ± 0.87 U/mg
SOD ([1]; 180 mg·kg^−1 intragastric): 37.25 ± 4.27 nmol/mg
AST ([1]; 180 mg·kg^−1 intragastric): 168.12 ± 4.89 U/L
GSH ([1]; 200 mg·kg^−1 intragastric): 19.01 ± 1.58 mg/g
MDA ([1]; 200 mg·kg^−1 intragastric): 5.45 ± 0.24 U/mg
SOD ([1]; 200 mg·kg^−1 intragastric): 36.25 ± 2.87 nmol/mg
AST ([1]; 200 mg·kg^−1 intragastric): 177.56 ± 4.25 U/L
GSH ([1]; 220 mg·kg^−1 intragastric): 17.24 ± 1.89 mg/g
SOD ([1]; 220 mg·kg^−1 intragastric): 30.12 ± 2.14 nmol/mg
AST ([1]; 220 mg·kg^−1 intragastric): 189.98 ± 5.67 U/L
inhibitory action on chemical liver injury ([1]; dosage of 50 mg/kg-140 mg/kg had the most obvious effect): obviously inhibitory action
